Key:
Test in all cases: Kinase panel activity
Format in all cases: biochemical
Details in all cases: 0.1 μM, ATP Km
SIK(h) = target: T1, SIK(h) (Homo sapiens, UniProt P57059)
T1 construct: purchased Millipore (KinaseProfiler service)
Description: (§1) The effect of NTW-3475 on kinase activity was tested for a wide range of kinases and is shown in Table 2: Summary Sheet, Activity % ATP Concentration: Km

GRK5(h) = GRK5(h) (Homo sapiens, UniProt P34947)
Description: as §1

Ab1(T3151)(h) = Ab1(T3151)(h) (Homo sapiens, UniProt P00519, T315I)
Description: as §1

IKKα(h) = IKKα(h) (Homo sapiens, UniProt O15111)
Description: as §1

Rsk1(h) = target: T2, Rsk1(h) (Homo sapiens, UniProt Q15418)
T2 construct: purchased Millipore (KinaseProfiler service)
Description: as §1

BrSK1(h) = BrSK1(h) (Homo sapiens, UniProt Q8TDC3)
Description: as §1

EphB4(h) = target: T3, EphB4(h) (Homo sapiens, UniProt P54760)
T3 construct: purchased Millipore (KinaseProfiler service)
Description: as §1

B1k(h) = B1k(h) (Homo sapiens, UniProt P51451)
Description: as §1

PKBγ(h) = PKBγ(h) (Homo sapiens, UniProt Q9Y243)
Description: as §1

TBK1(h) = target: T4, TBK1(h) (Homo sapiens, UniProt Q9UHD2)
T4 construct: purchased Millipore (KinaseProfiler service)
Description: as §1

MRCKα(h) = target: T5, MRCKα(h) (Homo sapiens, UniProt Q5VT25)
T5 construct: purchased Millipore (KinaseProfiler service)
Description: as §1

Ax1(h) = Ax1(h) (Homo sapiens, UniProt P30530)
Description: as §1

TSSK1(h) = target: T6, TSSK1(h) (Homo sapiens, UniProt Q9BXA7)
T6 construct: purchased Millipore (KinaseProfiler service)
Description: as §1

CHK2(R145W)(h) = CHK2(R145W)(h) (Homo sapiens, UniProt O96017, R145W)
Description: as §1

ROCK-II(r) = target: T7, ROCK-II(r) (Rattus norvegicus, UniProt Q62868)
T7 construct: purchased Millipore (KinaseProfiler service)
Description: as §1

LIMK1(h) = LIMK1(h) (Homo sapiens, UniProt P53667)
Description: as §1

FAK(h) = target: T8, FAK(h) (Homo sapiens, UniProt Q05397)
T8 construct: purchased Millipore (KinaseProfiler service)
Description: as §1

TAK1(h) = target: T9, TAK1(h) (Homo sapiens, UniProt O43318)
T9 construct: purchased Millipore (KinaseProfiler service)
Description: as §1

CHK1(h) = CHK1(h) (Homo sapiens, UniProt O14757)
Description: as §1

DDR2(h) = DDR2(h) (Homo sapiens, UniProt Q16832)
Description: as §1

Mnk2(h) = target: T10, Mnk2(h) (Homo sapiens, UniProt Q9HBH9)
T10 construct: purchased Millipore (KinaseProfiler service)
Description: as §1

JAK2(h) = JAK2(h) (Homo sapiens, UniProt O60674)
Description: as §1

TrkA(h) = target: T11, TrkA(h) (Homo sapiens, UniProt P04629)
T11 construct: purchased Millipore (KinaseProfiler service)
Description: as §1

SAPK2a(T106M)(h) = target: T12, SAPK2a(T106M)(h) (Homo sapiens, UniProt Q16539, T106M)
T12 construct: purchased Millipore (KinaseProfiler service)
Description: as §1

P1k3(h) = P1k3(h) (Homo sapiens, UniProt Q9H4B4)
Description: as §1

Lyn(m) = Lyn(m) (Mus musculus, UniProt P25911)
Description: as §1

NEK7(h) = NEK7(h) (Homo sapiens, UniProt Q8TDX7)
Description: as §1

Met(Y1248D)(h) = target: T13, Met(Y1248D)(h) (Homo sapiens, UniProt P08581, Y1230D)
T13 construct: purchased Millipore (KinaseProfiler service)
Description: as §1

Met(h) = target: T14, Met(h) (Homo sapiens, UniProt P08581)
T14 construct: purchased Millipore (KinaseProfiler service)
Description: as §1

LKB1(h) = LKB1(h) (Homo sapiens, UniProt Q15831)
Description: as §1

EphA3(h) = target: T15, EphA3(h) (Homo sapiens, UniProt P29320)
T15 construct: purchased Millipore (KinaseProfiler service)
Description: as §1

HIPK1(h) = HIPK1(h) (Homo sapiens, UniProt Q86Z02)
Description: as §1

CLK3(h) = CLK3(h) (Homo sapiens, UniProt P49761)
Description: as §1

IKKβ(h) = IKKβ(h) (Homo sapiens, UniProt O14920)
Description: as §1

GRK6(h) = GRK6(h) (Homo sapiens, UniProt P43250)
Description: as §1

NLK(h) = NLK(h) (Homo sapiens, UniProt Q9UBE8)
Description: as §1

SGK2(h) = target: T16, SGK2(h) (Homo sapiens, UniProt Q9HBY8)
T16 construct: purchased Millipore (KinaseProfiler service)
Description: as §1

CDK5/p25(h) = CDK5/p25(h) (Homo sapiens, UniProt Q00535)
Description: as §1

NEK6(h) = NEK6(h) (Homo sapiens, UniProt Q9HC98)
Description: as §1

Ab1(M351T)(h) = Ab1(M351T)(h) (Homo sapiens, UniProt P00519, M351T)
Description: as §1

P1k3(h), sequence (Q9H4B4 whole entry): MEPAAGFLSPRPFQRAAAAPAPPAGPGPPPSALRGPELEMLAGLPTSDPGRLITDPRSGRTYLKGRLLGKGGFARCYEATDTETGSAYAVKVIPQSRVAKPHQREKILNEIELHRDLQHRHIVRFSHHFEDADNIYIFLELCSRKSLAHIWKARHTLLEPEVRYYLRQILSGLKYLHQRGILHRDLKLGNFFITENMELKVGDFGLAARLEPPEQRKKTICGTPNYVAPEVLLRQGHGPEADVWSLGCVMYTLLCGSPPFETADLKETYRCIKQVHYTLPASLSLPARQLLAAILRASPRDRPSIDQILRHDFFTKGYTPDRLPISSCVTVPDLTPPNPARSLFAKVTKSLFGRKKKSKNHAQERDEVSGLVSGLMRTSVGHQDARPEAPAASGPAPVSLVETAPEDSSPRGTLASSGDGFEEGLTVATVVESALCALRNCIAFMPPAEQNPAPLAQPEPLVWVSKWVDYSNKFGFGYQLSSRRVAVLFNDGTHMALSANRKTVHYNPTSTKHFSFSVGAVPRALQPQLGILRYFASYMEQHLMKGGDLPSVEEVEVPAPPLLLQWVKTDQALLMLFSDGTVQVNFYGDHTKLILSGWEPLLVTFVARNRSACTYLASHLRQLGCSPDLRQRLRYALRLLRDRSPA
Ax1(h), sequence (P30530 26-894): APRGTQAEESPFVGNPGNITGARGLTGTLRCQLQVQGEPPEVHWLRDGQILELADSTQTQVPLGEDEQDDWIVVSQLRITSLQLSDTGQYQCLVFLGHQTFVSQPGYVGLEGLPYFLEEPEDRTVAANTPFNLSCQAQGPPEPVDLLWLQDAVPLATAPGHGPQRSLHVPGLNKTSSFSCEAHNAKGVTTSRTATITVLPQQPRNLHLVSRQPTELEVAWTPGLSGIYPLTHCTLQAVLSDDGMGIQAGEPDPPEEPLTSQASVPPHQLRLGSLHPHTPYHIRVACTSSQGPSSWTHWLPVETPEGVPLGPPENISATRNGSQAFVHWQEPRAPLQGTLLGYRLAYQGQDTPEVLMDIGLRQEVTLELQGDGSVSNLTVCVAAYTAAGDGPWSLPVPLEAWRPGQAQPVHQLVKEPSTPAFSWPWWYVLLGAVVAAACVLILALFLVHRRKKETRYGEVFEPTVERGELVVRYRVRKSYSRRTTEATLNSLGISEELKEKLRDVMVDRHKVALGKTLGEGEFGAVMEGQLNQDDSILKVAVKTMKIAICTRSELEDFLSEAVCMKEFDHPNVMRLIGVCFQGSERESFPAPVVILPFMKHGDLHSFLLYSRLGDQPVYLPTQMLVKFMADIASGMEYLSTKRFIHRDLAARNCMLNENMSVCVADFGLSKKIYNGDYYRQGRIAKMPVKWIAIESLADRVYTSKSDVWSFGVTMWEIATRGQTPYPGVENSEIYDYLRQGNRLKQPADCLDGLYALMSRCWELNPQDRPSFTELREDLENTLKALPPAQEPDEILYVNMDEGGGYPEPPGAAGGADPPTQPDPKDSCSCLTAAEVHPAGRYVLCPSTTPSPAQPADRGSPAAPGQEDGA
IKKβ(h), sequence (O14920 whole entry): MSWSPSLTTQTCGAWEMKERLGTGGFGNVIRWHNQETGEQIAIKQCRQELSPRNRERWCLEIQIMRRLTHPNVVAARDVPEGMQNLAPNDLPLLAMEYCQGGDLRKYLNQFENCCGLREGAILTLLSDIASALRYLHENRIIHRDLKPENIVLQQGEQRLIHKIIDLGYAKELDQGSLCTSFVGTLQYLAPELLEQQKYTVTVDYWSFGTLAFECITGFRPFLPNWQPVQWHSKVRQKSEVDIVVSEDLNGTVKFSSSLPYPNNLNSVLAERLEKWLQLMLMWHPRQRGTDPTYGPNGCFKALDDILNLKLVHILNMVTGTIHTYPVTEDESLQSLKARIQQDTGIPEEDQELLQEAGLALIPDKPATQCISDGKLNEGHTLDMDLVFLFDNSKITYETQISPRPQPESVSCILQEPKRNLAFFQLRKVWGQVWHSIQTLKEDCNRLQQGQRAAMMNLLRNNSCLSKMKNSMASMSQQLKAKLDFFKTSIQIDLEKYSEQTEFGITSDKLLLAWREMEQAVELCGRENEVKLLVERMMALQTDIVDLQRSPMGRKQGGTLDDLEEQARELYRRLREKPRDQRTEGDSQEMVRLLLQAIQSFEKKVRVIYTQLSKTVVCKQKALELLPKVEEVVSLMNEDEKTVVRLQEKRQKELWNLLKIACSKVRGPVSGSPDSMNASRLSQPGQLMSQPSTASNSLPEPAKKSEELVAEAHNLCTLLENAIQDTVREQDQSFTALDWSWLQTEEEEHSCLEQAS
T10 sequence (Q9HBH9 whole entry): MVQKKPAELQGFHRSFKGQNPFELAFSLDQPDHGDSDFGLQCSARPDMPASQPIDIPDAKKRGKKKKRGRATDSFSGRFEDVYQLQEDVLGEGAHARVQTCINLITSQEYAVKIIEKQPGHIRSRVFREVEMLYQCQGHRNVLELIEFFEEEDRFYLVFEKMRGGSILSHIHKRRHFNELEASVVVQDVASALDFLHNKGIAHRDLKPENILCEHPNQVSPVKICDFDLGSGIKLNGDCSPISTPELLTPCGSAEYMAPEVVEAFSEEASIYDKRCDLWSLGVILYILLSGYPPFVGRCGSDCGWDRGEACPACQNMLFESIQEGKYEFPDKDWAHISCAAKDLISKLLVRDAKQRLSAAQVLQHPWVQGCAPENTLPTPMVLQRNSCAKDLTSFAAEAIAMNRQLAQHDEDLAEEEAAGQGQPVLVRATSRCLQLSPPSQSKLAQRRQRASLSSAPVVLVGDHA
NEK7(h), sequence (Q8TDX7 whole entry): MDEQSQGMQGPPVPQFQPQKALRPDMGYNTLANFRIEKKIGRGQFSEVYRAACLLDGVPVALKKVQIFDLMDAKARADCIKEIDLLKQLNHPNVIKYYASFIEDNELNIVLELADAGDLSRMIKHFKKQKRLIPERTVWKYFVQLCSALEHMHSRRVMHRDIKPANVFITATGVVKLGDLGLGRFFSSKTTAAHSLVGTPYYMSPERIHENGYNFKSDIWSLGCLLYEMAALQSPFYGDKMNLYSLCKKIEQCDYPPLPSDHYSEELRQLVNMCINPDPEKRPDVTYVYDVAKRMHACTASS
T12 sequence (Q16539 whole entry T106M): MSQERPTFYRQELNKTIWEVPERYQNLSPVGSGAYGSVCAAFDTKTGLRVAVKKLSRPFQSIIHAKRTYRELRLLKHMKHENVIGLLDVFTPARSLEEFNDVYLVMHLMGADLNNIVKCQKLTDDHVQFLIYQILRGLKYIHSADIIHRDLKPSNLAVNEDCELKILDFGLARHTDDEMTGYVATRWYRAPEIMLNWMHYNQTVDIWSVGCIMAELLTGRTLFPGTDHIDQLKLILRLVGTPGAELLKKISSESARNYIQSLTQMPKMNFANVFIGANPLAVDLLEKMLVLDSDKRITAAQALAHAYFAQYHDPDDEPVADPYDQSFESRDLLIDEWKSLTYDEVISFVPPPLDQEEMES
Lyn(m), sequence (P25911 whole entry): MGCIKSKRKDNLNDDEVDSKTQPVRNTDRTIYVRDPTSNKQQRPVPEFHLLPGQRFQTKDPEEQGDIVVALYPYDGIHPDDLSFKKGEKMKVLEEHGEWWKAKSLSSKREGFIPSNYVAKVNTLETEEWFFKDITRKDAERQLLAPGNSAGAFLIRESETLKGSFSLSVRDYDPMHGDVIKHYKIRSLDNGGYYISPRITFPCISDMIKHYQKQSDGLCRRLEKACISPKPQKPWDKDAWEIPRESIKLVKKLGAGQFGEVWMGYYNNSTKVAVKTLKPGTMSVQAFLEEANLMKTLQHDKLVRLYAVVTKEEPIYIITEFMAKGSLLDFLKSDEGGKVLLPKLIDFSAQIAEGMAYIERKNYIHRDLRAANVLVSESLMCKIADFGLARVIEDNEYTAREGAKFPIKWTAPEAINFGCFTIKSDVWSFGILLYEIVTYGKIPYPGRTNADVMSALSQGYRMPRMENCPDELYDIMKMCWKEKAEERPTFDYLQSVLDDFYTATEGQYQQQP
B1k(h), sequence (P51451 whole entry): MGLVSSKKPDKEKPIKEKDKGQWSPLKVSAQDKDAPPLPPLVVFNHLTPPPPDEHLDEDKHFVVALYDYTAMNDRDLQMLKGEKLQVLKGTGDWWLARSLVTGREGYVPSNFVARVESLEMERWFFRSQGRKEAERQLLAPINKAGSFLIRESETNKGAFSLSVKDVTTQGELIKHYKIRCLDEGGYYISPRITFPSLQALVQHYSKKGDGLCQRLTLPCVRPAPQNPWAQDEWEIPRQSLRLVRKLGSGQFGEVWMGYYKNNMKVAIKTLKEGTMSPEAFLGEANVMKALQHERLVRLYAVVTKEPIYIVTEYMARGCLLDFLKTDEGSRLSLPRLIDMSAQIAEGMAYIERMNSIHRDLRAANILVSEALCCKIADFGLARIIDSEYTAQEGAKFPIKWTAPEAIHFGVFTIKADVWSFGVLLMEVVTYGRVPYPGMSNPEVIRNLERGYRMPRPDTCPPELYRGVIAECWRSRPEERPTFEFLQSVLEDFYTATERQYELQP
T16 sequence (Q9HBY8 whole entry): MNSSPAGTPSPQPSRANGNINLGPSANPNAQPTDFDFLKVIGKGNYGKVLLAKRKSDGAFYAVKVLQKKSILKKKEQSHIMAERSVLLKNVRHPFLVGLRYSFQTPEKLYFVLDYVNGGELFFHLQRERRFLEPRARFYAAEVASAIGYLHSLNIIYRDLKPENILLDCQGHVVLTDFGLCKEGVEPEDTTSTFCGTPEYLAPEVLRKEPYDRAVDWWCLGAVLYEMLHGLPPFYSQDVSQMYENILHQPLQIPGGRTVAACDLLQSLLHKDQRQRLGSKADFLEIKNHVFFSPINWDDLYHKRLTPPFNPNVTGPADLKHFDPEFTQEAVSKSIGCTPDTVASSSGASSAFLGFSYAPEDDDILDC

Activity % (SIK(h)): 33%
Activity % (GRK5(h)): 100%
Activity % (Ab1(T3151)(h)): −2%
Activity % (IKKα(h)): 102%
Activity % (Rsk1(h)): 84%
Activity % (BrSK1(h)): 53%
Activity % (EphB4(h)): 14%
Activity % (B1k(h)): 9%
Activity % (PKBγ(h)): 106%
Activity % (TBK1(h)): 28%
Activity % (MRCKα(h)): 102%
Activity % (Ax1(h)): 34%
Activity % (TSSK1(h)): 86%
Activity % (CHK2(R145W)(h)): 91%
Activity % (ROCK-II(r)): 42%
Activity % (LIMK1(h)): 15%
Activity % (FAK(h)): 78%
Activity % (TAK1(h)): 65%
Activity % (CHK1(h)): 113%
Activity % (DDR2(h)): 9%
Activity % (Mnk2(h)): 92%
Activity % (JAK2(h)): 8%
Activity % (TrkA(h)): 2%
Activity % (SAPK2a(T106M)(h)): 95%
Activity % (P1k3(h)): 95%
Activity % (Lyn(m)): 1%
Activity % (NEK7(h)): 98%
Activity % (Met(Y1248D)(h)): 21%
Activity % (Met(h)): 11%
Activity % (LKB1(h)): 98%
Activity % (EphA3(h)): 22%
Activity % (HIPK1(h)): 91%
Activity % (CLK3(h)): 87%
Activity % (IKKβ(h)): 109%
Activity % (GRK6(h)): 69%
Activity % (NLK(h)): 96%
Activity % (SGK2(h)): 107%
Activity % (CDK5/p25(h)): 60%
Activity % (NEK6(h)): 90%
Activity % (Ab1(M351T)(h)): −2%
Compound: Cc1cc2c(F)c(Oc3nc(Nc4cc(C5CC5)[nH]n4)cc(N4CCN(C)CC4)n3)cc(F)c2[nH]1 [NTW-3475]
